Laboratory results published in patent publication US20120321621A1, “INHIBITION OF FcyR-MEDIATED PHAGOCYTOSIS WITH REDUCED IMMUNOGLOBULIN PREPARATIONS” (priority 2008, published 2012).

How the values were obtained:
[1] = test system: FcγR-mediated phagocytosis of anti-D-sensitized R2R2 RBCs by monocyte-macrophages; experiment: Monocyte monolayer assay (MMA): inhibition of phagocytosis of anti-D-sensitized R2R2 RBCs; assay type: cell-based, human; conditions: for inhibition of phagocytosis by chemical alone after dialysis: after extensive dialysis
Text: Residual and phagocytosed RBCs were distinguished by relative differences in refracted light under phase-contrast microscopy.

[2] = test system: FcγR-mediated phagocytosis of anti-D-sensitized R2R2 RBCs by monocyte-macrophages; conditions: 10^−4M, MMA (Rampersad et al.); cited from earlier work

| SMILES | inhibition of phagocytosis by chemical alone after dialysis [1] | inhibition of phagocytosis by undialyzed chemical alone ([1]; undialyzed, 10^−5 or 10^−3 mol per L) [%] | inhibition of FcγR-mediated phagocytosis by chemical alone [2] | inhibition at 10000 µM ([1]; Homo sapiens, Monocyte, free, undialyzed, 10^−2M, read-out: inhibition of phagocytosis by free chemical) [%] |
| --- | --- | --- | --- | --- |
| C[CH2][Hg][S]c1ccccc1C(=O)[O-].[Na+] [thimerosal] | no longer inhibits phagocytosis | 100 |  |  |
| Cc1ccc(S(=O)(=O)CS)cc1 [p-toluenesulfonylmethyl mercaptan] | not able to inhibit phagocytosis |  | approximately 70% |  |
| O[C@H](CS)[C@H](O)CS (racemic) [DTT, Dithiothreitol] | no inhibition |  |  | ~30 |
